# Legend:
# IFT88-/- mice = test: iPTH in IFT88-/- and wild-type mice: PPCT IVD volume and IVD histological score; type: in vivo, mouse
# Text: Mice carrying the PTH1R gene flanked by loxP sites (PTH1R^flox/flox) were mated with Noto^Cre mice to generate mice bearing Noto^Cre and a floxed PTH1R allele in their germline. These mice were backcrossed to homozygous floxed mice (Noto^Cre/+/PTH1R^flox/+::PTH1R^flox/flox) to generate mice with inactivation of both alleles in notochord derived cells (genotype […]). Homozygous disruption of the Noto locus is perinatally lethal; viable offspring have genotypes of either Noto^Cre/+:: PTH1R^flox/flox (mice with PTH1R conditional deletion in Noto lineage cells are referred to as “[…]” in the text) or Noto^+/+:: PTH1R^flox/flox (wild-type littermates hereinafter referred to as “PTH1R^+/+” in the text). The genotype of transgenic mice was determined by PCR analyses of genomic DNA isolated from mouse tails. The floxed PTH1R allele was identified with primers lox1F (5-[…] ID NO: 1) and lox1R (5-[…] ID NO: 2). The genotyping for the Cre transgene was performed by PCR with the primers […] ID NO: 3) […] ID NO: 4). We generated Noto^Cre/+:: ROSA26-lacZ^flox/flox by crossing Noto mice with mice homozygous with a loxP-flanked DNA stop sequence, preventing expression of the downstream lacZ gene. IFT88^flox/flox mouse model has been generated as descripted. A NP tissue-specific primary cilia knock-out (KO) mouse line was generated by crossing NotoCre mice with IFT88^flox/flox mice, in which the primary cilia were deleted from the NP tissue. The loxP IFT88 allele was identified with the primers lox2F ([NT] ID NO: 5) and lox2R ([NT] ID NO: 6). The 11 month-old PTH1R^+/+ and PTH1R^-/- male mice were randomized into four groups: PTH1R^+/++PTH (1-34), PTH1R^+/++Vehicle, PTH1R^-/-+PTH (1-34) and PTH1R^-/-+Vehicle groups (n=8 per group). […] Quantitative histomorphometric analysis was conducted in a blinded fashion with Image-Pro Plus Software version 6.0 (Media Cybernetics Inc). […] Five randomly selected sections per mice in each group at L3-L4 level were chosen for quantitative histomorphometric analysis. […] The percentage area of CCN2 and ACAN positive staining was calculated by measuring the positive area to the whole area of the L3-L4 in each group. […] The images were reconstructed and analyzed using the GPU-CT-Reconstruction software (applied by the BL13W1 experimental station) and the VG Studio Max 3D software (version 2.1, Volume Graphics GmbH, Germany) respectively. […] The 3D quantitative analysis of IVDs was performed with the commercially available Image Pro Analyzer 3D software (Version 7.0, Media Cybernetics, Inc., USA). The 3D structural parameters analyzed for the mean height and volume and thickness distribution of IVDs. […]
# PTH1R = biological target: T1, PTH1R (Mus musculus, UniProt P41593); test: Primary cilia visualization and co-localization in NP cells; type: cell-based
# T1 construct: endogenous in cells; host or cells: primary mouse nucleus pulposus (NP) cells isolated from intervertebral discs of 15-day old male mice
# T1 sequence (P41593 27-591): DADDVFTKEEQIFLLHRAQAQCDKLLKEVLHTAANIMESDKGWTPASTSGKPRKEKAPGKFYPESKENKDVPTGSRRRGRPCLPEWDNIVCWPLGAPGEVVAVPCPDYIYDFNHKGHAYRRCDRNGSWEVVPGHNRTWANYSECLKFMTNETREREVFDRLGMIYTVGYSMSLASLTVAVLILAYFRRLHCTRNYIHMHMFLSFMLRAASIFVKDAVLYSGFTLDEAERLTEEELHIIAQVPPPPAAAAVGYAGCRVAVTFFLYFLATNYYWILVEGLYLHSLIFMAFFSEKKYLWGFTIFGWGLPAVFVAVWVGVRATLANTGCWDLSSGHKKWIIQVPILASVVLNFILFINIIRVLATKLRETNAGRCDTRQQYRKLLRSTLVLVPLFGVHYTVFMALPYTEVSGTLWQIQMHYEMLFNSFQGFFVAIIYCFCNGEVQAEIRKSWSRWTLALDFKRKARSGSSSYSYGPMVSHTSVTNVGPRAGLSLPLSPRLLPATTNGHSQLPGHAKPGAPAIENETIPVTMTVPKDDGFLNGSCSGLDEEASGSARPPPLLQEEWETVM
# Procedure: The localization of PTH signaling components within NP cells was investigated through immunocytochemistry after 48 hours of serum starvation (DMEM, 0.5% FBS, 1% P/S). Cells were treated with PTH (recombinant human PTH, […], Bachem Calif., Inc. King of Prussia, Pa., USA.) or shear stress (1 dyn/cm^2) with times of exposure for 30 minutes, fixed and stained for acetylated α-tubulin of primary cilia, PTH1R (Abcam, 1:100) and pCREP (Abcam, 1:500). Coverslips were mounted with Fluoroshield-DAPI. All cells were imaged using a Zeiss LSM710 META Confocal Laser Scanning microscope fitted with a 63× objective. Region of interest were selected manually using ImageJ software. The intensity profiles along the cilia have been performed by tracing a line across the length of the primary cilia and measuring intensity along this line using ImageJ software. Average intensities in the ciliary region, were measured on at least 30 ciliated cells per condition.
compound,measurement,setting,value
"CC[C@H](C)[C@H](NC(=O)[C@H](CCC(=O)O)NC(=O)[C@H](CO)NC(=O)[C@@H](NC(=O)[C@@H](N)CO)C(C)C)C(=O)N[C@@H](CCC(N)=O)C(=O)N[C@@H](CC(C)C)C(=O)N[C@@H](CCSC)C(=O)N[C@@H](Cc1cnc[nH]1)C(=O)N[C@@H](CC(N)=O)C(=O)N[C@@H](CC(C)C)C(=O)NCC(=O)N[C@@H](CCCCN)C(=O)N[C@@H](Cc1cnc[nH]1)C(=O)N[C@@H](CC(C)C)C(=O)N[C@@H](CC(N)=O)C(=O)N[C@@H](CO)C(=O)N[C@@H](CCSC)C(=O)N[C@@H](CCC(=O)O)C(=O)N[C@@H](CCCN=C(N)N)C(=O)N[C@H](C(=O)N[C@@H](CCC(=O)O)C(=O)N[C@@H](Cc1c[nH]c2ccccc12)C(=O)N[C@@H](CC(C)C)C(=O)N[C@@H](CCCN=C(N)N)C(=O)N[C@@H](CCCCN)C(=O)N[C@@H](CCCCN)C(=O)N[C@@H](CC(C)C)C(=O)N[C@@H](CCC(N)=O)C(=O)N[C@@H](CC(=O)O)C(=O)N[C@H](C(=O)N[C@@H](Cc1cnc[nH]1)C(=O)N[C@@H](CC(N)=O)C(=O)N[C@@H](Cc1ccccc1)C(=O)O)C(C)C)C(C)C [PTH (1-34), teriparatide]",improvement of IVD scores by iPTH,IFT88-/- mice; IFT88-/- mice,impaired
same,iPTH-increased IVD volume,IFT88-/- mice; IFT88-/- mice relative to wild-type mice,blunted
same,IVD scores,IFT88-/- mice; wild-type mice,improvement
same,IVD volume,IFT88-/- mice; wild-type mice,increased
same,start of translocation of PTH1R to cilia,PTH1R,10 min
same,translocation of PTH1R to cilia,PTH1R,stimulated translocation of PTH1R to cilia significantly
same,pCREB in cilia,PTH1R; co-immunostaining with acetylated tubulin,increased
same,PTH-enhanced transport of PTH1R to cilia,PTH1R; knockdown of pallidin with siRNA,blocked

# Source: US20210205638A1, “PARATHYROID HORMONE AND REGENERATION OF DEGENERATIVE DISCS DISEASE” (THE JOHNS HOPKINS UNIVERSITY, priority 2017, published 2021)
